Molecular target: human recombinant CyPA (Homo sapiens, UniProt P62937)
Assay: Semiautomated microtiter plate assay of rotamase activity inhibition, human recombinant CyPA
Assay type: biochemical
Conditions: Table B, value without asterisk: human recombinant CyPA
Method: Rotamase inhibition was determined using a semiautomated microtiter plate assay modification of the above described assay [see Küllertz et al., Clin. Chem. 44, 502-508 (1998)]. All dilutions of CyPA, peptide substrate, and chymotrypsin were made in 35 mM ice-cold HEPES buffer. Fifty μL of CyPA solution is added to 50 μL of the peptide substrate solution (Phe-Pro-Phe p-nitroanilide, 0.16 mg/ml) in a glass microtiter well plate (the concentration of human recombinant CyP being adjusted so that the reaction rate is increased by a factor of 3 as compared to an uncatalyzed control reaction wherein the peptide substrate is degraded by chymotrypsin alone, in the absence of CyPA and test compound). Using a Beckman Multimek™ 96 automated 96-channel pipettor, 5 μL of test compound solution, or a DMSO blank, were added to each well for a 30 minute preincubation at 4° C. One hundred μL of chymotrypsin solution (1 mg/mL) were added to each well and the absorbance at 390 nm versus time was monitored for 9-10 minutes using a BioRad Ultramark plate reader maintained at 4° C. and the rate constants were determined from the absorbance versus time data files.
IC50 values which were obtained for representative compounds are presented in the following Table B. The cyclophilin utilized was a human recombinant CyPA. […] While CyP A was used in these examples, other CyP proteins can be substituted.

Chain of human recombinant CyPA (P62937 whole entry): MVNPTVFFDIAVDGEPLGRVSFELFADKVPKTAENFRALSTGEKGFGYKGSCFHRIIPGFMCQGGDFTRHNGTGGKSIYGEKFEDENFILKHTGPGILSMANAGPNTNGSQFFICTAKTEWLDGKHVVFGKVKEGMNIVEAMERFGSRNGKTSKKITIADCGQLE

Row | Molecule | IC50
1 | 3-{3,5-Bis-[3-(3,5-dichlorophenyl)ureido]-phenyl}propionic acid methyl ester [Compound 5] | 1300 nM
2 | COC(=O)CCc1cc(NC(=O)Nc2cc(Cl)cc(Cl)c2)cc(NC(=O)Nc2cc(Cl)cc(Cl)c2)c1 [Compound 1, 3-{3,5-Bis-[3-(3,5-dichloro-phenyl)-ureido]-phenyl}-propionic acid methyl ester] | 2940 nM
3 | O=C(Nc1cccc(C(F)(F)F)c1)c1cc(O)cc(C(=O)Nc2cccc(C(F)(F)F)c2)c1 [Compound 2, 5-Hydroxy-N,N′-bis-(3-trifluoromethyl-phenyl)-isophthalamide] | 15900 nM
4 | O=C(Nc1cccc(C(F)(F)F)c1)c1cc(C(=O)Nc2cccc(C(F)(F)F)c2)cc(-c2cccc3ccccc23)c1 [Compound 3, 5-Naphthalen-1-yl-N,N′-bis-(3-trifluoromethyl-phenyl)isophthalamide] | 3420 nM
5 | CC(C)(C)OC(=O)NCCCCCCNC(=O)c1cc(NC(=O)Nc2cc(Cl)cc(Cl)c2)cc(C(=O)Nc2cccc(C(F)(F)F)c2)c1 [Compound 4, {6-[3-[3-(3,5-Dichloro-phenyl)-ureido]-5-(3-trifluoromethyl-phenylcarbamoyl)-benzoylamino]hexyl}carbamic acid tert-butyl ester] | 833 nM
6 | O=C(Nc1cc(COc2ccc(Cl)c(Cl)c2)cc(NC(=O)c2cc(Cl)cc(Cl)c2)c1)c1cc(Cl)cc(Cl)c1 [Compound 6, 1,3-(3,5-Dichlorophenyl)-N-[5-(3,4-dichlorophenoxymethyl)-phenyl]amide] | 3790 nM
7 | O=S(=O)(Nc1cc(COc2ccc(Cl)c(Cl)c2)cc(NS(=O)(=O)c2cccc3ccccc23)c1)c1cccc2ccccc12 [Compound 7, 1,3-(1-Naphthalene)-N-[5-(3,4-dichloro-phenoxymethyl)-phenyl]-sulfonamide] | 2110 nM
8 | O=C(Nc1cccc(C(F)(F)F)c1)c1cc(OCc2ccccc2)cc(OCc2ccccc2)c1 [Compound 8, 3,5-Di(benzyloxy)-3′-(trifluoromethyl)benzanilid] | 4760 nM
9 | CS/C(=N\c1cc(Cl)cc(Cl)c1)Nc1cc(NC(=O)c2cc(Cl)cc(Cl)c2)cc(Nc2cccc(C(F)(F)F)c2)c1 [Compound 9, N-(5-{[2-aza-2-(3,5-dichlorophenyl)-1-methylthiovinyl]amino}-3-{[3-(trifluoromethyl)phenyl]amino}phenyl)(3,5-dichlorophenyl)formamide] | 1580 nM

Further lines, results first:

Row | IC50 | Molecule
10 | 807 nM | S=C(Nc1cc(Cl)cc(Cl)c1)Nc1cc(NC(=S)Nc2cc(Cl)cc(Cl)c2)cc(Nc2ccc(Br)cc2)c1 [Compound 11, [(3,5-dichlorophenyl)amino]{[3-({[(3,5-dichlorophenyl)amino]thioxomethyl}amino)-5-[(4-bromophenyl)amino]phenyl]amino}methane-1-thione]
11 | 7710 nM | O=C(Nc1cc(CN2C(=O)c3ccccc3C2=O)cc(NC(=O)c2cccc(C(F)(F)F)c2)c1)c1cccc(C(F)(F)F)c1 [Compound 12, N-(5-[(1,3-dioxoisoindolin-2-yl)methyl]-3-{[3-(trifluoromethyl)phenyl]carbonylamino}phenyl)[3-(trifluoromethyl)phenyl]formamide]
12 | 15100 nM | O=C(Nc1cc(CNCc2cccc3ccccc23)cc(NC(=O)c2cccc(C(F)(F)F)c2)c1)c1cccc(C(F)(F)F)c1 [Compound 14, N-(5-{[(naphthylmethyl)amino]methyl}-3-{[3-(trifluoromethyl)phenyl]carbonyl-amino}phenyl)[3-(trifluoromethyl)phenyl]formamide]
13 | 1980 nM | O=C(Nc1cccc(C(F)(F)F)c1)c1cc(Oc2ccc3ccccc3c2)cc(C(=O)Nc2cccc(C(F)(F)F)c2)c1 [Compound 17, (5-(2-naphthyloxy)-3-{N-[3-(trifluoromethyl)phenyl]carbamoyl}phenyl)-N-[3-(trifluoromethyl)phenyl]formamide]
14 | 1320 nM | O=C(Nc1cccc(C(F)(F)F)c1)c1cc(C(=O)Nc2cccc(C(F)(F)F)c2)cc(-c2ccc3ccccc3c2)c1 [Compound 18, (5-(2-naphthyl)-3-{N-[3-(trifluoromethyl)phenyl]carbamoyl}phenyl)-N-[3-(trifluoromethyl)phenyl]formamide]

Source: patent publication US6656971B2, “Trisubstituted carbocyclic cyclophilin binding compounds and their use” (Guilford Pharmaceuticals Inc., priority 2001, dated 2003)
